Measurements published in patent US9809623B2, “α4β7 peptide monomer and dimer antagonists” (Protagonist Therapeutics, Inc., priority 2014, dated 2017).
Numbered stars: 1 amine (or outer) side, 2 acyl side, 3 side chain; on linkers, the order of the positions; unused ones are H or OH. Bridge positions count the residues as written; N and C are the ends. Square brackets hold non-standard residues; d marks the D form. Peptide text beside a SMILES is read from it. I, II: the chains in the order shown. 2Nal = N[C@@H](Cc1ccc2ccccc2c1)C(=O)O; Diglycolyl = O=C(COCC(=O)[*:2])[*:1]; NMeR = CN[C@@H](CCCNC(=N)N)C(=O)O; β3hE = N[C@@H](CCC(=O)O)CC(=O)O; NMeK = CN[C@@H](CCCCN)C(=O)O; Pen = CC(C)(S)[C@H](N)C(=O)O; dNMeK = CN[C@H](CCCCN)C(=O)O

Assays:
[1] = Simulated Intestinal Fluid (SIF) Stability Assay; assay type: in vitro ADME, porcine; conditions: pig, simulated intestinal fluid (SIF) with 1% porcine pancreatin, pH 6.5, Table 4-C, t1/2; > means assay stopped at that time; read-out: SIF (porcine) Min
Method in brief: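 Peptides (22 μM final) incubated at 37 °C in FASSIF (pH 6.5) with 1% porcine pancreatin; aliquots quenched at various times and analyzed by LC-MS/MS against internal standard. Half-life from first-order exponential decay fit of percent remaining.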

α4β7 = α4β7 (Homo sapiens, UniProt P13612+P26010); test: α4β7-MAdCAM Cell Adhesion Assay (RPMI 8866 human cells); assay type: cell-based; set-up: host or cells: RPMI 8866 human B lymphoblastoid cells; conditions: Table 4-B; read-out: Cell Adhesion α4β7 IC50
α4β7, sequence (P13612 34-1032): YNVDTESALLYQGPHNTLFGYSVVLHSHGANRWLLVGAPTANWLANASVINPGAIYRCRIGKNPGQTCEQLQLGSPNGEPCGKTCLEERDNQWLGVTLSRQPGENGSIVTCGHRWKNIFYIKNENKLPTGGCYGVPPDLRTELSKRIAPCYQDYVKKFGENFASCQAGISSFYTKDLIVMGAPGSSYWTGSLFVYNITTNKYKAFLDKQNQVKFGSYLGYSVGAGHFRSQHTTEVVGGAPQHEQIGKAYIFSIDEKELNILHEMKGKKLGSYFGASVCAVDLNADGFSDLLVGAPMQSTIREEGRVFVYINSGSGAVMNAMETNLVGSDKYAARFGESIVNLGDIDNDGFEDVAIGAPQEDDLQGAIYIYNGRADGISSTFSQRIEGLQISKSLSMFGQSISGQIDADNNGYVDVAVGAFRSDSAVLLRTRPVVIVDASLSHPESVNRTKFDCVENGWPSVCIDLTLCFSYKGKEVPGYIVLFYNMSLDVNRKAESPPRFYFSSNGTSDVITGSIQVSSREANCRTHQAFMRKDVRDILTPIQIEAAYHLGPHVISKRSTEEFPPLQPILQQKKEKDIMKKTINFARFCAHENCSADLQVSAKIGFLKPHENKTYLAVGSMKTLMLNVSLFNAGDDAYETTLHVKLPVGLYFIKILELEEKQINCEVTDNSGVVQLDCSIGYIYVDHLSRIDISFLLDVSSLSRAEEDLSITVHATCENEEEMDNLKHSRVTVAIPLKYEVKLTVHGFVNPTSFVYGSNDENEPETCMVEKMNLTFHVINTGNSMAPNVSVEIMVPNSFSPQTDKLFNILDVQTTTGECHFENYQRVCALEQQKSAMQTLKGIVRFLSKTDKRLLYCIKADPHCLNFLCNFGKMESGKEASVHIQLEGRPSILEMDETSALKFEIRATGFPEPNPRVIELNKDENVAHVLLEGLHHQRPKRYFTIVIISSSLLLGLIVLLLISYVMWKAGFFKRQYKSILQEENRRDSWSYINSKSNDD
α4β7, sequence (P26010 20-798): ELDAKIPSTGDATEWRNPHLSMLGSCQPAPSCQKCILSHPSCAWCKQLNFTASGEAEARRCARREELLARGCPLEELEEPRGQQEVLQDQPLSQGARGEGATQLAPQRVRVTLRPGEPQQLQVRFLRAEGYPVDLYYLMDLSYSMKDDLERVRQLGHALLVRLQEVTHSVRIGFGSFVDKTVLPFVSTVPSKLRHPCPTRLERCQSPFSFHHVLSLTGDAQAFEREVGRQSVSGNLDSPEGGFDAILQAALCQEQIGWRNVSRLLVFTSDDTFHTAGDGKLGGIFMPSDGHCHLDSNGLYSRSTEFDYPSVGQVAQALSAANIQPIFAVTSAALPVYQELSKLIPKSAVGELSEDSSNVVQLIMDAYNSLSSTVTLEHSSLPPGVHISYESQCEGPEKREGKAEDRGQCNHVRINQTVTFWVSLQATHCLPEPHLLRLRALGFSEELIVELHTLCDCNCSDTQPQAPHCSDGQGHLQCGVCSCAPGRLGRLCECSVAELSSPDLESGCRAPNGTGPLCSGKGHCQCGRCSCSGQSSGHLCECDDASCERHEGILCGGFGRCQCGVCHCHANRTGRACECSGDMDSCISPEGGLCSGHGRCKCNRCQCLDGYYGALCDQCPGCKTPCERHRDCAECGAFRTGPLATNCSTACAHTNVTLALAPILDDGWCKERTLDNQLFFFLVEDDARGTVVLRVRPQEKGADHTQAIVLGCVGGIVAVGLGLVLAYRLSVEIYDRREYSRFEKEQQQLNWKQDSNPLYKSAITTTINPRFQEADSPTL
Method in brief: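 Washed RPMI 8866 cells (200,000/well) in DMEM with 0.1% BSA, 10 mM HEPES pH 7, 1 mM MnCl2 adhered to rh MAdCAM-1/Fc-coated wells with serially diluted peptides, 30-45 min at 37 °C. After three washes, bound cells quantified by MTT, A570, cell-free background subtracted for dose response.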

rh integrin α4β7 = target: T1, rh integrin α4β7 (Homo sapiens, UniProt P13612+P26010); test: α4β7-MAdCAM Competition ELISA; assay type: binding; conditions: Table 4-B; read-out: ELISA α4β7 IC50
T1 construct: purchased R&D Systems 5397-A30
T1 sequence (P13612 34-977 limits assumed): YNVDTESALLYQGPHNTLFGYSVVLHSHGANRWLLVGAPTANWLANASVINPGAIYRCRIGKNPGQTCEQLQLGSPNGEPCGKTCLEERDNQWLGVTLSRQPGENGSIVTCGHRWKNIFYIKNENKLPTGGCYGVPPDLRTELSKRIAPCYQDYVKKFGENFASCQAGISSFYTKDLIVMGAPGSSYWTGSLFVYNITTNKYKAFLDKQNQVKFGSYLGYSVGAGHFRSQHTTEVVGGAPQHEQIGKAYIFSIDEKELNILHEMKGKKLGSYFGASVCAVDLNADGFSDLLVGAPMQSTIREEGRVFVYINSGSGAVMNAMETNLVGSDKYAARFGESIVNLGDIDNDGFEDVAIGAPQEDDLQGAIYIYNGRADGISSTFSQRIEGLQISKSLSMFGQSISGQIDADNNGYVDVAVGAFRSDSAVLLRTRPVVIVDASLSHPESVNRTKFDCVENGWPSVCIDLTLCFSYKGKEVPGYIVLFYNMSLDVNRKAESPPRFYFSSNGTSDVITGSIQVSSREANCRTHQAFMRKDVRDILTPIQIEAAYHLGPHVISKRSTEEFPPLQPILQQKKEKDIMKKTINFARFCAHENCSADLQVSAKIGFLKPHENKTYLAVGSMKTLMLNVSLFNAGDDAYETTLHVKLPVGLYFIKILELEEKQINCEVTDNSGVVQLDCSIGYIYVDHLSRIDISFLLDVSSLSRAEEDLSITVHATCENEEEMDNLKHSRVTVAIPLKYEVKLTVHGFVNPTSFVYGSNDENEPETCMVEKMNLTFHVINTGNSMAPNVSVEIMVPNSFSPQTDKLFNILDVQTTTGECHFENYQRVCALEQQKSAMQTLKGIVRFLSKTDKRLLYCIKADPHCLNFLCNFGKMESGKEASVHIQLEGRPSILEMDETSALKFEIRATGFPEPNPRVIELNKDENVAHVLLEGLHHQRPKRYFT
T1 sequence (P26010 20-723 limits assumed): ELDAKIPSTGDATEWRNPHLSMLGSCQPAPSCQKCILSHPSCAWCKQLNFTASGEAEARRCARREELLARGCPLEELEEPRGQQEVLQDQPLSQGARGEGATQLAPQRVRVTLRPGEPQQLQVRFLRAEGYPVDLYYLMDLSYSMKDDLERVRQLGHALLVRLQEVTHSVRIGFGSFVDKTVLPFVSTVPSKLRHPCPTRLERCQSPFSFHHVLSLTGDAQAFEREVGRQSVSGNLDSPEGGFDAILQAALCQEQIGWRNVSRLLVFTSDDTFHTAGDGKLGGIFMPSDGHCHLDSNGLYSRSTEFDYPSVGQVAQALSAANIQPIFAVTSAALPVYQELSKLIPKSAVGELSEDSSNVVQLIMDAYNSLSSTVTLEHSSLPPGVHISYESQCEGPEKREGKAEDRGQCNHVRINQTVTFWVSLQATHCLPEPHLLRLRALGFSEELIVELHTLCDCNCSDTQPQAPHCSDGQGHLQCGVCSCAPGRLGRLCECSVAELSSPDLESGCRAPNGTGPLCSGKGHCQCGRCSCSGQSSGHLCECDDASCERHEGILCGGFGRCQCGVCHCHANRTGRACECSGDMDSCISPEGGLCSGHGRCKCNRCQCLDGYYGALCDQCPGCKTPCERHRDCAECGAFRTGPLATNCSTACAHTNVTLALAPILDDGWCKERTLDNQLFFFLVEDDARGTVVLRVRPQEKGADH
Method in brief: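 Recombinant human α4β7 was captured on nickel plates at 800 ng/well. Peptide in 3-fold serial dilution (final top 10 μM) competed with MAdCAM-1 (final 10 nM) for 1 h at room temperature in 50 mM Tris pH 7.6, 150 mM NaCl, 1 mM MnCl2 or MgCl2. Bound MAdCAM-1 was detected with anti-human IgG1-HRP/TMB at A450.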

| Compound | half-life at 22 μM [1] [h] | IC50 (α4β7) [nM] | IC50 (rh integrin α4β7) [nM] |
| --- | --- | --- | --- |
| CC(=O)N[C@@H]1C(=O)N(C)[C@@H](CCCNC(=N)N)C(=O)N[C@@H](CO)C(=O)N[C@@H](CC(=O)O)C(=O)N[C@@H]([C@@H](C)O)C(=O)N[C@@H](CC(C)C)C(=O)N[C@H](C(=O)N[C@@H](Cc2c[nH]c3ccccc23)C(=O)N[C@H](CCCCNC(=O)COCC(=O)NCCCC[C@@H](NC(=O)[C@H](Cc2c[nH]c3ccccc23)NC(=O)[C@H]2NC(=O)[C@H](CC(C)C)NC(=O)[C@H]([C@@H](C)O)NC(=O)[C@H](CC(=O)O)NC(=O)[C@H](CO)NC(=O)[C@H](CCCNC(=N)N)N(C)C(=O)[C@@H](NC(C)=O)C(C)(C)SSC2(C)C)C(N)=O)C(N)=O)C(C)(C)SSC1(C)C [compound 209, (Ac-Pen-N-Me-R-S-D-T-L-Pen-W-k-NH2)2-DIG] (I: Ac-[Pen][NMeR]SDTL[Pen]W[dK]-NH2 / II: Ac-[Pen][NMeR]SDTL[Pen]W[dK]-NH2; disulfide I:1-I:7, II:1-II:7 (inferred); linker I:9-II:9 via Diglycolyl (inferred)) | > 3 | 24 | 2.3 |
| CC(=O)N[C@@H]1C(=O)N(C)[C@@H](CCCNC(=N)N)C(=O)N[C@@H](CO)C(=O)N[C@@H](CC(=O)O)C(=O)N[C@@H]([C@@H](C)O)C(=O)N[C@@H](CC(C)C)C(=O)N[C@H](C(=O)N[C@@H](Cc2c[nH]c3ccccc23)C(=O)N[C@H](CCC(=O)O)C(=O)N[C@H](CCCCNC(=O)COCC(=O)NCCCC[C@@H](NC(=O)[C@@H](CCC(=O)O)NC(=O)[C@H](Cc2c[nH]c3ccccc23)NC(=O)[C@H]2NC(=O)[C@H](CC(C)C)NC(=O)[C@H]([C@@H](C)O)NC(=O)[C@H](CC(=O)O)NC(=O)[C@H](CO)NC(=O)[C@H](CCCNC(=N)N)N(C)C(=O)[C@@H](NC(C)=O)C(C)(C)SSC2(C)C)C(N)=O)C(N)=O)C(C)(C)SSC1(C)C [compound 211, (Ac-Pen-N-Me-R-S-D-T-L-Pen-W-e-k-NH2)2-DIG] (I: Ac-[Pen][NMeR]SDTL[Pen]W[dE][dK]-NH2 / II: Ac-[Pen][NMeR]SDTL[Pen]W[dE][dK]-NH2; disulfide I:1-I:7, II:1-II:7 (inferred); linker I:10-II:10 via Diglycolyl (inferred)) | > 5 | 22 | 3 |
| CC(=O)N[C@@H]1C(=O)N(C)[C@@H](CCCNC(=N)N)C(=O)N[C@@H](CO)C(=O)N[C@@H](CC(=O)O)C(=O)N[C@@H]([C@@H](C)O)C(=O)N[C@@H](CC(C)C)C(=O)N[C@H](C(=O)N[C@@H](Cc2ccc3ccccc3c2)C(=O)N[C@@H](CCC(=O)O)C(=O)N[C@H](CCCCNC(=O)COCC(=O)NCCCC[C@@H](NC(=O)[C@H](CCC(=O)O)NC(=O)[C@H](Cc2ccc3ccccc3c2)NC(=O)[C@H]2NC(=O)[C@H](CC(C)C)NC(=O)[C@H]([C@@H](C)O)NC(=O)[C@H](CC(=O)O)NC(=O)[C@H](CO)NC(=O)[C@H](CCCNC(=N)N)N(C)C(=O)[C@@H](NC(C)=O)C(C)(C)SSC2(C)C)C(N)=O)C(N)=O)C(C)(C)SSC1(C)C [compound 212, (Ac-Pen-N-Me-R-S-D-T-L-Pen-2-Nal-E-k-NH2)2-DIG] (I: Ac-[Pen][NMeR]SDTL[Pen][2Nal]E[dK]-NH2 / II: Ac-[Pen][NMeR]SDTL[Pen][2Nal]E[dK]-NH2; disulfide I:1-I:7, II:1-II:7 (inferred); linker I:10-II:10 via Diglycolyl (inferred)) | 1.5 | 2.5 | 2 |
| CC(=O)N[C@@H]1C(=O)N(C)[C@@H](CCCNC(=N)N)C(=O)N[C@@H](CO)C(=O)N[C@@H](CC(=O)O)C(=O)N[C@@H]([C@@H](C)O)C(=O)N[C@@H](CC(C)C)C(=O)N[C@H](C(=O)N[C@@H](Cc2c[nH]c3ccccc23)C(=O)N[C@@H](CCC(=O)O)CC(=O)N[C@H](CCCCNC(=O)COCC(=O)NCCCC[C@@H](NC(=O)C[C@H](CCC(=O)O)NC(=O)[C@H](Cc2c[nH]c3ccccc23)NC(=O)[C@H]2NC(=O)[C@H](CC(C)C)NC(=O)[C@H]([C@@H](C)O)NC(=O)[C@H](CC(=O)O)NC(=O)[C@H](CO)NC(=O)[C@H](CCCNC(=N)N)N(C)C(=O)[C@@H](NC(C)=O)C(C)(C)SSC2(C)C)C(N)=O)C(N)=O)C(C)(C)SSC1(C)C [compound 213, [Ac-Pen-(N-Me-Arg)-Ser-Asp-Thr-Leu-Pen-Trp-(β-homoGlu)-(D-Lys)-NH2]2-DIG] (I: Ac-[Pen][NMeR]SDTL[Pen]W[β3hE][dK]-NH2 / II: Ac-[Pen][NMeR]SDTL[Pen]W[β3hE][dK]-NH2; disulfide I:1-I:7, II:1-II:7; linker I:10-II:10 via Diglycolyl) | > 3 | 12 | 4.7 |
| CC(=O)N[C@@H]1C(=O)N(C)[C@@H](CCCNC(=N)N)C(=O)N[C@@H](CO)C(=O)N[C@@H](CC(=O)O)C(=O)N[C@@H]([C@@H](C)O)C(=O)N[C@@H](CC(C)C)C(=O)N[C@H](C(=O)N[C@@H](Cc2c[nH]c3ccccc23)C(=O)N[C@@H](CCC(=O)O)C(=O)N(C)[C@H](CCCCNC(=O)COCC(=O)NCCCC[C@H](C(N)=O)N(C)C(=O)[C@H](CCC(=O)O)NC(=O)[C@H](Cc2c[nH]c3ccccc23)NC(=O)[C@H]2NC(=O)[C@H](CC(C)C)NC(=O)[C@H]([C@@H](C)O)NC(=O)[C@H](CC(=O)O)NC(=O)[C@H](CO)NC(=O)[C@H](CCCNC(=N)N)N(C)C(=O)[C@@H](NC(C)=O)C(C)(C)SSC2(C)C)C(N)=O)C(C)(C)SSC1(C)C [compound 214, [Ac-Pen-(N-Me-Arg)-Ser-Asp-Thr-Leu-Pen-Trp-Glu-(N-Me-D-Lys)-NH2]2-DIG] (I: Ac-[Pen][NMeR]SDTL[Pen]WE[dNMeK]-NH2 / II: Ac-[Pen][NMeR]SDTL[Pen]WE[dNMeK]-NH2; disulfide I:1-I:7, II:1-II:7 (inferred); linker I:10-II:10 via Diglycolyl (inferred)) | > 13.5 | 2.5 | 4.1 |
| CC(=O)N[C@@H]1C(=O)N(C)[C@@H](CCCNC(=N)N)C(=O)N[C@@H](CO)C(=O)N[C@@H](CC(=O)O)C(=O)N[C@@H]([C@@H](C)O)C(=O)N[C@@H](CC(C)C)C(=O)N[C@H](C(=O)N[C@@H](Cc2c[nH]c3ccccc23)C(=O)N[C@@H](CCC(=O)O)C(=O)N(C)[C@@H](CCCCNC(=O)COCC(=O)NCCCC[C@@H](C(N)=O)N(C)C(=O)[C@H](CCC(=O)O)NC(=O)[C@H](Cc2c[nH]c3ccccc23)NC(=O)[C@H]2NC(=O)[C@H](CC(C)C)NC(=O)[C@H]([C@@H](C)O)NC(=O)[C@H](CC(=O)O)NC(=O)[C@H](CO)NC(=O)[C@H](CCCNC(=N)N)N(C)C(=O)[C@@H](NC(C)=O)C(C)(C)SSC2(C)C)C(N)=O)C(C)(C)SSC1(C)C [compound 215, [Ac-Pen-(N-Me-Arg)-Ser-Asp-Thr-Leu-Pen-Trp-Glu-(N-Me-Lys)-NH2]2-DIG] (I: Ac-[Pen][NMeR]SDTL[Pen]WE[NMeK]-NH2 / II: Ac-[Pen][NMeR]SDTL[Pen]WE[NMeK]-NH2; disulfide I:1-I:7, II:1-II:7 (inferred); linker I:10-II:10 via Diglycolyl (inferred)) | > 6 | 3 | 2.2 |
| CC(=O)N[C@@H]1C(=O)N(C)[C@@H](CCCNC(=N)N)C(=O)N[C@@H](CO)C(=O)N[C@@H](CC(=O)O)C(=O)N[C@@H]([C@@H](C)O)C(=O)N[C@@H](CC(C)C)C(=O)N[C@H](C(=O)N[C@@H](Cc2c[nH]c3ccccc23)C(=O)N[C@H](CCC(=O)O)C(=O)N[C@H](CCCCNC(=O)COCC(=O)NCCCC[C@@H](NC(=O)[C@@H](CCC(=O)O)NC(=O)[C@H](Cc2c[nH]c3ccccc23)NC(=O)[C@H]2NC(=O)[C@H](CC(C)C)NC(=O)[C@H]([C@@H](C)O)NC(=O)[C@H](CC(=O)O)NC(=O)[C@H](CO)NC(=O)[C@H](CCCNC(=N)N)N(C)C(=O)[C@@H](NC(C)=O)C(C)(C)SSC2(C)C)C(=O)O)C(=O)O)C(C)(C)SSC1(C)C [compound 216, (Ac-Pen-N-Me-R-S-D-T-L-Pen-W-e-k-OH)2-DIG] (I: Ac-[Pen][NMeR]SDTL[Pen]W[dE][dK]-OH / II: Ac-[Pen][NMeR]SDTL[Pen]W[dE][dK]-OH; disulfide I:1-I:7, II:1-II:7 (inferred); linker I:10-II:10 via Diglycolyl (inferred)) | > 3 | 4.2 | 2.8 |
| CC(=O)N[C@@H]1C(=O)N(C)[C@@H](CCCNC(=N)N)C(=O)N[C@@H](CO)C(=O)N[C@@H](CC(=O)O)C(=O)N[C@@H]([C@@H](C)O)C(=O)N[C@@H](CC(C)C)C(=O)N[C@H](C(=O)N[C@@H](Cc2c[nH]c3ccccc23)C(=O)N[C@@H](CCC(=O)O)C(=O)N[C@H](CCCCNC(=O)COCC(=O)NCCCC[C@@H](NC(=O)[C@H](CCC(=O)O)NC(=O)[C@H](Cc2c[nH]c3ccccc23)NC(=O)[C@H]2NC(=O)[C@H](CC(C)C)NC(=O)[C@H]([C@@H](C)O)NC(=O)[C@H](CC(=O)O)NC(=O)[C@H](CO)NC(=O)[C@H](CCCNC(=N)N)N(C)C(=O)[C@@H](NC(C)=O)C(C)(C)SSC2(C)C)C(N)=O)C(N)=O)C(C)(C)SSC1(C)C [compound 217, (Ac-Pen-N-Me-R-S-D-T-L-Pen-W-E-k-NH2)2-DIG] (I: Ac-[Pen][NMeR]SDTL[Pen]WE[dK]-NH2 / II: Ac-[Pen][NMeR]SDTL[Pen]WE[dK]-NH2; disulfide I:1-I:7, II:1-II:7 (inferred); linker I:10-II:10 via Diglycolyl (inferred)) | 2.02 | 3.2 | 2.3 |
